From ChEMBL document CHEMBL1770145, “Synthesis of 5(6)-dihydro-OSW-1 analogs bearing three kinds of disaccharides linking at 15-hydroxy and their antitumor activities” (Bioorg Med Chem Lett, 2011)
pIC50: −log10 of the molar value.

Tests used:
Assay type in all cases: functional, cell-based
[1] = tested on: BGC-823; test: Cytotoxicity against human BGC823 cells by MTT assay
[2] = tested on: Bel-7402; test: Cytotoxicity against human Bel7402 cells by MTT assay
[3] = tested on: A2780; test: Cytotoxicity against human A2780 cells by MTT assay
[4] = tested on: HCT-8; test: Cytotoxicity against human HCT8 cells by MTT assay
[5] = tested on: MCF7; test: Cytotoxicity against human MCF7 cells by MTT assay
[6] = tested on: KETR3; test: Cytotoxicity against human Ketr3 cells by MTT assay
[7] = tested on: A549; test: Cytotoxicity against human A549 cells by MTT assay
[8] = tested on: AGS; test: Cytotoxicity against human AGS cells
[9] = tested on: Bel-7402; test: Cytotoxicity against human Bel7402 cells
[10] = tested on: MCF7; test: Cytotoxicity against human MCF7 cells

SMILES | pIC50 [1] | pIC50 [2] | pIC50 [3] | pIC50 [4] | pIC50 [5] | pIC50 [6] | pIC50 [7] | pIC50 [8] | pIC50 [9] | pIC50 [10]
COc1ccc(C(=O)O[C@H]2[C@H](O[C@H]3CO[C@@H](O[C@H]4CC([C@H](C)C(=O)CC[C@@H](C)CO)[C@@]5(C)CC[C@H]6[C@@H](CC[C@H]7C[C@@H](O)CC[C@@]76C)[C@H]45)[C@H](OC(C)=O)[C@H]3O)OC[C@@H](O)[C@@H]2O)cc1 (stereo partly specified) | < 5.00 | < 5.00 | < 5.00 | < 5.00 | < 5.00 | < 5.00 | < 5.00 |  |  | 
COc1ccc(C(=O)O[C@H]2[C@H](O[C@@H]3[C@@H](OC(C)=O)[C@H](O[C@H]4CC([C@H](C)C(=O)CC[C@@H](C)CO)[C@@]5(C)CC[C@H]6[C@@H](CC[C@H]7C[C@@H](O)CC[C@@]76C)[C@H]45)OC[C@@H]3O)OC[C@@H](O)[C@@H]2O)cc1 (stereo partly specified) | < 5.00 | < 5.00 | < 5.00 | < 5.00 | < 5.00 | < 5.00 | < 5.00 |  |  | 
C[C@@H](CO)CCC(=O)[C@@H](C)C1C[C@@H](O[C@H]2O[C@H](CO)[C@@H](O)[C@H](O)[C@H]2O[C@@H]2O[C@@H](C)[C@H](O)[C@@H](O)[C@H]2O)[C@H]2[C@@H]3CC[C@H]4C[C@@H](O)CC[C@]4(C)[C@H]3CC[C@]12C (stereo partly specified) | < 5.00 | < 5.00 | < 5.00 | < 5.00 | < 5.00 | < 5.00 | < 5.00 |  |  | 
C[C@@H](CO)CCC(=O)[C@@H](C)C1C[C@@H](O[C@@H]2O[C@H](CO)[C@@H](O)[C@H](O)[C@H]2O[C@@H]2O[C@@H](C)[C@H](O)[C@@H](O)[C@H]2O)[C@H]2[C@@H]3CC[C@H]4C[C@@H](O)CC[C@]4(C)[C@H]3CC[C@]12C (stereo partly specified) | < 5.00 | < 5.00 | < 5.00 | < 5.00 | < 5.00 | < 5.00 | < 5.00 |  |  | 
COc1ccc(C(=O)O[C@H]2[C@H](O[C@H]3CO[C@@H](O[C@@H]4CC([C@H](C)C(=O)CC[C@@H](C)CO)[C@@]5(C)CC[C@H]6[C@@H](CC[C@H]7C[C@@H](O)CC[C@@]76C)[C@H]45)[C@H](OC(C)=O)[C@H]3O)OC[C@@H](O)[C@@H]2O)cc1 (stereo partly specified) | < 5.00 | < 5.00 | < 5.00 | < 5.00 | < 5.00 | < 5.00 | < 5.00 |  |  | 
COc1ccc(C(=O)O[C@H]2[C@H](O[C@@H]3[C@@H](OC(C)=O)[C@H](O[C@@H]4CC([C@H](C)C(=O)CC[C@@H](C)CO)[C@@]5(C)CC[C@H]6[C@@H](CC[C@H]7C[C@@H](O)CC[C@@]76C)[C@H]45)OC[C@@H]3O)OC[C@@H](O)[C@@H]2O)cc1 (stereo partly specified) | 6.55 | 6.28 | 6.26 | 7.00 | 6.30 | 7.00 | 6.07 |  |  | 
COc1ccc(C(=O)O[C@H]2[C@H](O[C@@H]3[C@@H](OC(C)=O)[C@H](O[C@H]4C[C@H]5[C@@H]6CCC7C[C@@H](O)CC[C@]7(C)[C@H]6CC[C@]5(C)[C@@]4(O)[C@H](C)C(=O)CCC(C)C)OC[C@@H]3O)OC[C@@H](O)[C@@H]2O)cc1 (stereo partly specified) |  |  |  |  |  |  |  | 6.15 | 7.60 | 7.54
C[C@@H](CO)CCC(=O)[C@@H](C)C1C[C@H](O[C@H]2O[C@H](CO)[C@@H](O)[C@H](O)[C@H]2O[C@@H]2O[C@@H](C)[C@H](O)[C@@H](O)[C@H]2O)[C@H]2[C@@H]3CC[C@H]4C[C@@H](O)CC[C@]4(C)[C@H]3CC[C@]12C (stereo partly specified) | < 5.00 | < 5.00 | < 5.00 | < 5.00 | < 5.00 | < 5.00 | < 5.00 |  |  | 
C[C@@H](CO)CCC(=O)[C@@H](C)C1C[C@H](O[C@@H]2O[C@H](CO)[C@@H](O)[C@H](O)[C@H]2O[C@@H]2O[C@@H](C)[C@H](O)[C@@H](O)[C@H]2O)[C@H]2[C@@H]3CC[C@H]4C[C@@H](O)CC[C@]4(C)[C@H]3CC[C@]12C (stereo partly specified) | < 5.00 | < 5.00 | < 5.00 | < 5.00 | < 5.00 | < 5.00 | < 5.00 |  |  | 
C[C@@H]1CC[C@@]2(OC1)O[C@H]1C[C@H]3[C@@H]4CC=C5C[C@@H](O[C@@H]6O[C@H](CO)[C@@H](O[C@@H]7O[C@@H](C)[C@H](O)[C@@H](O)[C@H]7O)[C@H](O)[C@H]6O[C@@H]6O[C@@H](C)[C@H](O)[C@@H](O)[C@H]6O)CC[C@]5(C)[C@H]4CC[C@]3(C)[C@H]1[C@@H]2C [DIOSCIN] | 6.57 | 6.03 | 6.24 | 6.45 | 6.06 | 6.35 | 6.34 |  |  | 
